{"source": "patent US20230151065A1", "about": "“MULTI-DISULFIDE-BOND LONG-CHAIN PEPTIDE WITH NEURO[…], PHARMACEUTICAL COMPOSITION AND APPLICATION” (priority 2018, published 2023)", "format_in_all_cases": "cell-based", "key": {"[1]": {"test_system": "primary cultured SD fetal rat cortical neurons after OGD damage", "assay": "OGD damage of cortical neurons, observation under light microscope", "details": "OGD 2 h, 24 h reoxygenation; ABPPk2 medium-dose (40 ng/ml) and high-dose (200 ng/ml) groups vs OGD damage group", "experimental": "(§1) The suspension was filtered with a 400-mesh screen, centrifuged at 1000 rpm for 5 min, and blown to form the single cell suspension. DMEM high glucose complete medium (containing 10% fetal bovine serum) was inoculated in a culture dish or culture plate pre-coated with polylysine (PLL) to culture in 5% CO2 incubator with saturated humidity at 37° C. After the cells were cultured for 4 h to adhere to the wall, the cells were cultured with neuron culture medium (neurobasal+2% B27) for 3 d to observe the growth of neurons. The culture medium containing cytarabine (the final concentration of cytarabine was 2.5 μg/ml) was substituted with half quantity to culture for 3d to inhibit the growth of glial cells and miscellaneous cells to obtain purely cultured primary cortical nerve cells. The purity of the cortical neurons was identified by immunocytochemical staining as more than 90%.\nAfter the cortical neurons were cultured to the 7th day, the original culture medium was sucked out, and the cells were rinsed twice with sugar-free DMEM basal medium, for 5 min each time. Each OGD damage group was added with DMEM sugar-free culture medium, placed in a Billups-Rothenberg anaerobic culture chamber, filled with 95% N2/5% CO2 to balance for 15 min, and sealed for 2 h to build an OGD model. […]"}, "[2]": {"test_system": "primary cultured SD fetal rat cortical neurons after OGD damage", "assay": "OGD damage of cortical neurons, mitochondrial membrane potential (JC-1, flow cytometer)", "details": "OGD 2 h, 24 h reoxygenation; ABPPk2 8, 40, 200 ng/ml; obvious dose-effect relationship", "experimental": "as §1, with “90%. […]” for “90%.”\n(5) Effect of ABPPk2 on mitochondrial membrane potential of cortical neurons after OGD damage: cortical neurons were inoculated in a 6-well plate at 1×10^6 cells/ml; 2 ml of cell suspension was added to each well; and the cortical neurons were cultured to the 7th day. […] The mitochondrial membrane potential of the cortical neurons after OGD damage was detected by a JC-1 staining kit and a flow cytometer. […]"}, "[3]": {"test_system": "primary fetal rat hippocampal neurons", "assay": "Growth of hippocampal neurons, live cell station", "details": "ABPPk2 100 ng/ml, observed for 48 h", "experimental": "(1) Primary culture of fetal rat hippocampal neurons: after a rat pregnant for 17 days was anesthetized, a fetal rat was taken out under sterile conditions; the brain of the fetal rat was taken out on ice; the hippocampus was carefully taken out under a dissecting microscope; and the blood vessel membranes were removed. 0.125% trypsin/EDTA was digested at 37° C. for 10 min, and the digestion was stopped by adding the DMEM complete medium containing 10% FBS. Cell debris were removed through centrifugal at 1000 rpm for 5 min; the DMEM complete medium was added to resuspend the cells; the cells were gently blown until a single cell suspension was formed; and the cells were inoculated at an appropriate density on a culture plate (dish) pre-coated with polylysine (PLL) and cultured at 37° C., 5% CO2 incubator. After 4 h, the cells were adhered to the wall; the DMEM complete medium was discarded and replaced with neurobasal medium containing different concentrations of ABPPk2 (the concentrations of ABPPk2 were 4 ng/ml, 20 ng/ml and 100 ng/ml); the neurobasal medium containing 10 ng/ml BDNF was used as the positive control group, and neurobasal was used as the negative control group.\n(3) Neuron growth was observed by a live cell station: the hippocampal neuron single cell suspension obtained in (1) was inoculated on a culture plate pre-coated with PLL at a cell density of 5×10^5. […]"}, "[4]": {"test_system": "primary cultured SD fetal rat cortical neurons after OGD damage", "assay": "OGD damage of cortical neurons, CCK-8 activity", "details": "OGD 2 h, 24 h reoxygenation; ABPPk2 8, 40, 200 ng/ml; effect more obvious as dose increased", "experimental": "as §1\nAfter the cortical neurons were cultured to the 7th day, the original culture medium was sucked out, and the cells were rinsed twice with sugar-free DMEM basal medium, for 5 min each time. […]\nAnalysis of cortical neuron activity after OGD damage and drug treatment: cortical neurons were inoculated into 96-well plates at 1×10^6 cells/ml; and 100 μl cell suspension was added to each well. […] The absorbance (OD) value of the sample in each well was measured on the microplate reader at 450 nm wavelength. […]"}}, "note": "Where no end group is shown, it is not given here.", "data": [{"substance": "Cys-Leu-Glu-Ser-Gly-Thr-Ser-Cys-Ile-Pro-Gly-Ala-Gln-His-Asn-Cys-Cys-Ser-Gly-Val-Cys-Val-Pro-Ile-Val-Thr-Ile-Phe-Tyr-Gly-Val-Cys-Tyr (CLESGTSCIPGAQHNCCSGVCVPIVTIFYGVCY; disulfide (positions not given here); not fully specified (bridges); also: three disulfide bonds, pairing not given here) [ABPPk2, 33 amino acid polypeptide isolated from the extract of Achyranthes bidentata Blume, three pairs of disulfide bonds]", "values": [{"measurement": "dead cells under light microscope", "setting": "[1]", "result": "the number of dead cells is significantly reduced"}, {"measurement": "mitochondrial membrane potential", "setting": "[2]", "result": "can alleviate the decline in mitochondrial membrane potential"}, {"measurement": "growth of hippocampal neurons (live cell station)", "setting": "[3]", "result": "can promote the growth of the hippocampal neurons and the extension of neurites"}, {"measurement": "cortical neuron activity (CCK-8)", "setting": "[4]", "result": "can effectively antagonize the decrease of cortical neuron activity caused by OGD damage"}]}]}
